# Assay results taken from US10307463B2 (priority 2003, dated 2019).
# Legend:
# [1] = tested on: formalin-induced tonic flinch responses; conditions: rat, in vivo
# [2] = tested on: heart rate and arterial blood pressure; conditions: rat, in vivo
# [3] = tested on: formalin-induced tonic flinch responses; conditions: rat, in vivo; cited from earlier work
# [4] = tested on: thermal (heat) response latencies; conditions: rat, in vivo
# [5] = tested on: GI transit; conditions: rat, in vivo
compound,measurement,setting,value
CCCCN1CCCCC1C(=O)Nc1c(C)cccc1C (stereo not drawn) [bupivacaine],formalin-induced tonic (persistent) pain behavior,[1],did not significantly inhibit
same,hindpaw paralysis,[1],immediate but transient hindpaw paralysis
"Clc1cccc(Cl)c1N=C1NCCN1 [clonidine, 2,6-dichloro-N-2-imidazolidinylidenebenzenamine]",heart rate,[2],dose-dependent bradycardia
same,formalin-induced tonic (persistent) pain behavior,[1],dose-dependently suppressed
"CN1CC[C@]23c4c5ccc(O)c4OC2C(O)C=C[C@H]3[C@H]1C5 (stereo partly drawn) [morphine, 7,8-didehydro-4,5-epoxy-17-methylmorphinan-3,6-diol]",tonic formalin-induced flinching behavior after six days infusion,[3],significantly reduced
same,development of tolerance to analgesic effects,[4],declined in magnitude
same,thermal (heat) response latencies,[4],moderately antinociceptive
same,GI transit,[5],dose-dependent inhibition
"NCC(CC(=O)O)c1ccc(Cl)cc1 (stereo not drawn) [baclofen, γ-amino-β-(p-chlorophenyl) butyric acid]",formalin-induced tonic (persistent) pain behavior,[1],dose-dependent reductions
